Test results: patent publication US5013757A, “Physiologically active substance Tan-931, its derivatives, their production and use” (Takeda Chemical Industries, Ltd., priority 1988, dated 1991)

Assays:
human placenta aromatase = molecular target: T1, human placenta aromatase (Homo sapiens, UniProt P11511); experiment: In vitro human placenta microsome aromatase inhibitory activity; assay type: biochemical; details: androstenedione 4 μM, 37° C., 1 hour
T1 construct: The resulting pellet was used as a microsome fraction; from tissue; host or cells: human placenta, microsome fraction (148,000×g pellet)
T1 sequence (P11511 1-503): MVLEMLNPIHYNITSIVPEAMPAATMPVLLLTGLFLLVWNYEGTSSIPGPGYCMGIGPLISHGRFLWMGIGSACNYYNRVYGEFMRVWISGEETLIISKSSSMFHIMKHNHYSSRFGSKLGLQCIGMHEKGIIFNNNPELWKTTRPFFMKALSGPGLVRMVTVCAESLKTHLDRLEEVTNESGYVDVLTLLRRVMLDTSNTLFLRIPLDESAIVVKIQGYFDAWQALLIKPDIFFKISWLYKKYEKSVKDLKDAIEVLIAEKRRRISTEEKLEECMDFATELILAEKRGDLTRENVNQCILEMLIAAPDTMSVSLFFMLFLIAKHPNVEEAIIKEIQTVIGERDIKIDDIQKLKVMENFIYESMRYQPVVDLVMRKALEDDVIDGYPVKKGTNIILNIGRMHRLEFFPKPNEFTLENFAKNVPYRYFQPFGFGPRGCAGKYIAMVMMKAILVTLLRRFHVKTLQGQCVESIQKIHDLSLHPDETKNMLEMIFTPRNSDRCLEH
Description: (§1) The following Experiments specifically illustrate in vitro human placenta aromatase inhibitory activity and inhibition of estrogen synthesis in the rat by the compounds of the present invention.
Preparation of human placenta microsome
The method of F. A. Thompson et al. [J. Biol. Chem., 249, 5364 (1974)] was partly modified. Namely, the placenta was washed with 0.15 M KCl which was previously cooled to remove the attached membrane and large blood vessels and then sufficiently and finely cut with scissors. To the finely cut tissue was added 2 ml of cold 0.02 M phosphate buffer containing 0.25M sucrose (pH 7.4) per 1 g of the tissue and the mixture was homogenized with Polytron homogenizer (30 second×3, in ice). Then, the mixture was centrifuged at 800×g for 10 minutes and the supernatant was centrifuged at 20,000×g for 30 minutes and further at 148,000×g for 45 minutes. The resulting pellet was used as a microsome fraction. The microsome obtained was suspended in 1 ml of the above phosphate buffer per 10 g of the placenta and stored at -80° C. Upon use, it was diluted 5 to 6 times.
Determination of aromatase activity and inhibitory activity
The method of F. A. Thompson et al. [see above] was partly modified as follows.
A reaction mixture (225 μl ) containing 4-androstene-3,17-dione (4 μM ), 1,2 [^3 H]-androstenedione (140,000 dpm), NADPH (550 μM ) and the above microsome (20 μl ) and a solution containing an inhibitor or not (5 μl ) was incubated at 37° C. for 1 hour. According to this determination, [^3 H]-H2 O was formed by aromatization of androstenedione. Then, the reaction mixture was extracted with chloroform (0.5 ml) to separate layers and the aqueous layer obtained was treated with 5% activated carbon (0.25 ml) to remove the free steroid. After high-speed centrifugation, to the supernatant (0.2 ml) was added scintillator (3 ml) and radioactivity was determined with a liquid scintillation counter. By comparing the result obtained by addition of an inhibitor with that of a control sample wherein the reaction was carried out without addition of any inhibitor, an inhibitory rate (%) was calculated. The effectiveness was expressed by the concentration which was required for inhibiting 50% of the enzyme activity at the substrate (androstenedione) concentration of 4 μM

[1] = test system: various enzymes which pertain to biosynthesis of steroid hormones; details: background statement; cited from earlier work
[2] = test system: estrogen synthesis in rat; experiment: In vivo inhibition of estrogen synthesis in PMSG-stimulated young female rats; set-up: species or system SD rats (female, 19 days old)
Method: as §1
In vivo inhibition of estrogen synthesis by the compound 1 (TAN-931) was studied by the following experiment.
Five young SD rats (female, 19 days old) were used per one group. The rats of test groups were administered the compound suspended in 0.2% gum arabic-physiological saline solution subcutaneously at the doses of 25, 50 and 100 mg/kg for 4 days at 24-hour intervals. The rats of control groups (Control 1 and 2) were administered 0.2 ml of 0.2% gum arabic-physiological saline solution. After administration of the compound on the third day after initiation of the test, a single dose of 10 U/rat (s.c.) of pregnant mare's serum gonadotropin (PMSG) was administered to the rats of test groups and Control 2. […] After centrifugation, the plasma was obtained and the plasma estradiol-17 β level was determined by radio immunoassay. Further, the uterus and ovarium were removed from the rat, freed from connective tissue and the like and weighed, respectively. As the control compound for estimation of the pharmacological activity, 4-hydroxyandrostenedione (4-OHA) was used.

Acute toxicity in mice = details: mouse, in vivo, sc; subcutaneous, male mice (4 weeks old)
Description: Thus, the compounds (I-1) have a potent aromatase inhibitory activity and, therefore, they can be advantageously used for prevention and treatment of estrogen dependent diseases such as breast cancer, endometriosis, endometrium cancer, benign breast diseases, prostatomegaly and the like as well as for control of conception. Further, toxicity of the compounds (I-1) of the present invention is low.

Solubility of TAN-931 = assay type: physicochemical
[3] = 25 mg/kg/day s.c., 4 days, PMSG
[4] = 50 mg/kg/day s.c., 4 days, PMSG
[5] = 100 mg/kg/day s.c., 4 days, PMSG

Compound	IC50 (human placenta aromatase)	also measured
O=Cc1cc(C(=O)O)cc(O)c1C(=O)c1c(O)ccc(Cl)c1O [Compound 27]	14.3 µM	
CNC(=O)c1cc(O)c(C(=O)c2c(O)cccc2O)c(C=O)c1 [Compound 6]	21.3 µM	
COc1cccc(O)c1C(=O)c1c(C=O)cc(C(=O)O)cc1OC [Compound 17]	96.6 µM	
COCOC(=O)c1cc(O)c(C(=O)c2c(O)cccc2O)c(C=O)c1 [Compound 3]	12.4 µM	
COc1cc(C(=O)N(C)C)cc(C=O)c1C(=O)c1c(O)cccc1O [Compound 19]	18.3 µM	
CCC1(c2ccc(N)cc2)CCC(=O)NC1=O (centres unmarked) [aminoglutethimide]		inhibition of enzymes of steroid hormone biosynthesis [1]: inhibits various enzymes
O=Cc1cc(C(=O)O)cc(O)c1C(=O)c1c(O)cccc1O [Compound 1]	17.2 µM	Plasma estradiol 17-B level [2, 3]: 312.8 ± 192.4 pg/mL; Tissue weight Ovarium [2, 3]: 24.2 ± 6.2 mg; Tissue weight Uterus [2, 3]: 108.4 ± 15.6 mg; Plasma estradiol 17-B level [2, 4]: 80.8 ± 64.2 pg/mL; Tissue weight Ovarium [2, 4]: 16.4 ± 6.4 mg; Tissue weight Uterus [2, 4]: 89.4 ± 30.8 mg; Plasma estradiol 17-B level [2, 5]: 50.2 ± 23.5 pg/mL; Tissue weight Ovarium [2, 5]: 14.5 ± 1.5 mg; Tissue weight Uterus [2, 5]: 66.3 ± 38.0 mg; blood estrogen level raised by stimulation due to PMSG administration ([2]; result in words): significantly lowered; LD50 (Acute toxicity in mice): ≥ 800 mg/kg; Solubility (Solubility of TAN-931; chloroform, diethyl ether): Slightly soluble; Solubility (Solubility of TAN-931; dimethylsulfoxide (DMSO), methanol, ethanol, acetone): Soluble; Solubility (Solubility of TAN-931; water, n-hexane): Insoluble
O=Cc1cc(C(=O)N2CCOCC2)cc(O)c1C(=O)c1c(O)cccc1O [Compound 11]	16.4 µM	
C[C@]12CCC(=O)C(O)=C1CC[C@@H]1[C@@H]2CC[C@]2(C)C(=O)CC[C@@H]12 [Compound 4-OHA, 4-hydroxyandrostenedione, reference compound]		Plasma estradiol 17-B level [2, 5]: 149.6 ± 76.7 pg/mL; Tissue weight Ovarium [2, 5]: 28.4 ± 7.9 mg; Tissue weight Uterus [2, 5]: 85.9 ± 13.0 mg; Weight gain [2, 5]: 22.2 ± 1.5 g
C=CCNC(=O)c1cc(O)c(C(=O)c2c(O)cccc2O)c(C=O)c1 [Compound 9]	15.2 µM	
CCCCCCOC(=O)c1cc(O)c(C(=O)c2c(O)cccc2O)c(C=O)c1 [Compound 5]	32.3 µM	
O=Cc1cc(C(=O)OCc2ccccc2)cc(O)c1C(=O)c1c(O)cccc1O [Compound 4]	206 µM	
Cc1ccc(NC(=O)c2cc(O)c(C(=O)c3c(O)cccc3O)c(C=O)c2)cc1 [Compound 13]	16.1 µM	
CC(C)NC(=O)c1cc(O)c(C(=O)c2c(O)cccc2O)c(C=O)c1 [Compound 10]	25.6 µM	
COc1cccc(O)c1C(=O)c1c(O)cc(C(=O)O)cc1C=O [Compound 16]	135 µM	
COC(=O)c1cc(O)c(C(=O)c2c(O)cccc2O)c(C=O)c1 [Compound 2]	22.1 µM	
CN(C)CCNC(=O)c1cc(O)c(C(=O)c2c(O)cccc2O)c(C=O)c1 [Compound 14]	16.9 µM	
COc1cc(C(=O)O)cc(C=O)c1C(=O)c1c(O)cccc1O [Compound 15]	24 µM	
O=Cc1cc(C(=O)N2CCCC2)cc(O)c1C(=O)c1c(O)cccc1O [Compound 12]	23.4 µM	
CCCCCCNC(=O)c1cc(O)c(C(=O)c2c(O)cccc2O)c(C=O)c1 [Compound 8]	17.6 µM	
CN(C)C(=O)c1cc(O)c(C(=O)c2c(O)cccc2O)c(C=O)c1 [Compound 7]	14.6 µM	
